Experimental data reported in patent publication US9408887B2, “Intermittent dosing regimen for treating breast cancer” (New York University, priority 2011, dated 2016).
Entries after “also recorded” stand apart in the source; their conditions may differ. Where two headings read alike, the source gives them in different places. Starred links: 1 amine or outer side, 2 acyl side, 3 side chain; linkers in the order of their positions; H or OH if unused. Non-standard residues stand in square brackets, D forms with d. Residues, ends and D or L forms follow the SMILES beside them. Groups on a side chain read outwards from the residue. *: point of attachment. Ethylenediamine = C(CN[*:2])N[*:1]; Hyp = O=C(O)[C@@H]1C[C@@H](O)CN1; Phg = N[C@H](C(=O)O)c1ccccc1; CO = O=C([*:1])[*:2]; Bn = c1ccc(C*)cc1

Key:
[1] = tested on: Brca1LoxP/Brca1LoxP mice; assay: LoxP mammary phenotype (duct width, hyperplasia, HANs) after IGF-I inhibitor treatment; format: in vivo, mouse; details: for duct width, glandular hyperplasia and hyperplastic alveolar nodules (in words): symptomatic LoxP mice, after treatment
Method: The present inventor and colleagues have previously shown that growth hormone induced IGF-I activity is essential for mammary development and also estrogen and progesterone action. To determine whether inhibition of IGF-I action would prevent, reverse or delay the abnormalities associated with BRCA deficiency observed in LoxP animals, symptomatic animals were treated with three different compounds that inhibit IGF-I action.
Women with BRCA1 mutations are at high risk for developing breast cancer. As described above, an animal model of Brca1 deficiency (Brca1^LoxP/Brca1^LoxP mouse model system, also referred to herein as the LoxP mouse model system) was developed in which the mammary glands are abnormally developed and which presents with a phenotype similar to that observed in women with BRCA1 mutations. The Brca1loxP/loxP phenotype is characterized by ductal dilatation and epithelial hyperplasia. In earlier studies, 4 month old Brca1loxP/loxP mice were treated with pasireotide, PQ401 (a small molecule kinase inhibitor of the IGF-I receptor), or vehicle for 7 days. At the end of that period, mammary development in drug- vs. vehicle-treated animals was compared.

[2] = tested on: somatostatin receptors; details: of 5 subtypes; cited from earlier work
[3] = tested on: breast cancer; details: women with hyperplastic lesions of the breast; clinical evidence; cited from earlier work
[4] = target: SSTR-5 (Homo sapiens, UniProt P35346); details: cited from earlier work
[5] = Phase III, Cushing's disease; cited from earlier work
[6] = rats; Bruns et al. 2002, van der Hoek et al. 2004; cited from earlier work
[7] = Serum glucose and insulin levels during and post SOM230 treatment in patients; details: human, in vivo
[8] = humans, cited from earlier work
[9] = target: SSTR-2 (Homo sapiens, UniProt P30874); details: cited from earlier work
[10] = tested on: Ki67 staining (cell proliferation); assay: Cell proliferation by Ki67 immunohistochemistry in mammary glands of LoxP mice; format: in vivo, mouse; details: for cell proliferation as assessed by Ki67 immunohistochemistry: after treatment
[11] = target: SSTR-3 (Homo sapiens, UniProt P32745); details: cited from earlier work
[12] = tested on: mammary gland development; details: rats; cited from earlier work
[13] = tested on: cells with more than 1 or 2 centrosomes per cell; assay: Centrosome index by γ-tubulin immunolocalization in mammary glands of LoxP mice (genomic instability); format: in vivo, mouse; details: 7 days of treatment
Excerpt: Evidence directed to this point is presented in FIG. 2A, wherein immunolocalization of γ-tubulin (green) is used to locate centrosomes in the mammary glands of wildtype (WT) or Brca1 deficient (Brca1^LoxP/Brca1^LoxP) mice. Nuclei (blue) are counterstained. As shown therein, 1 or 2 centrosomes per cell are observed in wildtype mice, reflecting normal, control numbers of centrosomes in individual cells.
Nuclei (blue) are counterstained. In wildtype mice, 1 or 2 centrosomes per cell are observed, reflecting normal, control numbers of centrosomes in individual cells.

[14] = tested on: PR/p63 double positive cells; assay: Simultaneous immunofluorescence for PR and p63 in mammary glands of Brca1LoxP/Brca1LoxP (C57 loxP) mice; format: in vivo, mouse; details: 7 days of treatment; for frequency of PR/p63 double positive cells: C57 loxP mice, untreated loxP 22.5±0.8%, wildtype 3.8±0.4%; for frequency of PR/p63 double positive cells (in words): LoxP mice
Method: Simultaneous Immunofluorescence for PR and p63: 3-5 μm paraffin embedded tissue sections from C57/b and C57 loxP mice were stained using antibodies against PR and p63 (Lab Vision). Briefly, samples were deparaffinized by 60° C. heating following by xylene immersion for 30 min. Antigens were retrieved by heating 10 min 95° C. followed by 10 min 85° C. in citric acid pH 6.0 (Vector). […] Next day, specific secondary goat anti mouse Alexa Fluor 488 and donkey anti rabbit Alexa Fluor 594 antibodies (Invitrogen) were used to a final concentration of 1:200 to detect the primary antibodies, by incubating the samples for 1 hour at room temperature. Finally, samples were counterstained using DAPI at 0.02 mg/ml and mounted with Vectashield (Vector). Samples were imaged using a 40× objective with 0.95 numerical aperture Zeiss Plan-Apochromat objective on a Zeiss Axiovert equipped with epifluorescence. The number of epithelial cells positive for PR, p63 or both, was then calculated as the relative frequency of positive cells per epithelial cells per image. Finally, frequencies of positive cells between animal groups were statistically analyzed with the chi-square distribution. A probability of p<0.05 was considered statistically significant. Women with BRCA1 mutations are at high risk for developing breast cancer. As described above, an animal model of Brca1 deficiency (Brca1^LoxP/Brca1^LoxP mouse model system, also referred to herein as the LoxP mouse model system) was developed in which the mammary glands are abnormally developed and which presents with a phenotype similar to that observed in women with BRCA1 mutations. The Brca1loxP/loxP phenotype is characterized by ductal dilatation and epithelial hyperplasia. In earlier studies, 4 month old Brca1loxP/loxP mice were treated with pasireotide, PQ401 (a small molecule kinase inhibitor of the IGF-I receptor), or vehicle for 7 days. At the end of that period, mammary development in drug- vs. vehicle-treated animals was compared.

[15] = target: SSTR-1 (Homo sapiens, UniProt P30872); details: cited from earlier work
[16] = 13 patients, 30 days after stopping SOM230

Chain of SSTR-1 (P30872 whole entry, species assumed): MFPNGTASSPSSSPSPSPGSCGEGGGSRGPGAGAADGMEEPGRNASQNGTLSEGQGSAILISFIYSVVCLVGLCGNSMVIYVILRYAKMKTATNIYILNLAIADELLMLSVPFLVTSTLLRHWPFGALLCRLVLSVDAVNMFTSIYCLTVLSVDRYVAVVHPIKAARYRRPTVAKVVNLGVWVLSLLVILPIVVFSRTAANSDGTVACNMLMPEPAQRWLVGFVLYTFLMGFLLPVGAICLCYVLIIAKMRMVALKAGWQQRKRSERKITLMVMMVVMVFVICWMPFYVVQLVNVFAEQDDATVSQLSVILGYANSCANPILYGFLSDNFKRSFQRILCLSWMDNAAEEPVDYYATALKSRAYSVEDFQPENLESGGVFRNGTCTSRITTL
Chain of SSTR-2 (P30874 whole entry, species assumed): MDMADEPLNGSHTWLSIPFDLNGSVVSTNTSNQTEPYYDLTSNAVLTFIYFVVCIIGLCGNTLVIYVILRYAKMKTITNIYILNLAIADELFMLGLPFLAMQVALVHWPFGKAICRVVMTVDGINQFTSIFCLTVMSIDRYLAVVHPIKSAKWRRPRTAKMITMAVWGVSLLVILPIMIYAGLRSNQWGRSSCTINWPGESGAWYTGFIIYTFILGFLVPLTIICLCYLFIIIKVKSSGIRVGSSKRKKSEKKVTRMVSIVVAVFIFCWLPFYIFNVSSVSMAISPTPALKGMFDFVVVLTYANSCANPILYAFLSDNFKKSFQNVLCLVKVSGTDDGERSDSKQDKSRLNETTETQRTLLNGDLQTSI
Chain of SSTR-5 (P35346 whole entry, species assumed): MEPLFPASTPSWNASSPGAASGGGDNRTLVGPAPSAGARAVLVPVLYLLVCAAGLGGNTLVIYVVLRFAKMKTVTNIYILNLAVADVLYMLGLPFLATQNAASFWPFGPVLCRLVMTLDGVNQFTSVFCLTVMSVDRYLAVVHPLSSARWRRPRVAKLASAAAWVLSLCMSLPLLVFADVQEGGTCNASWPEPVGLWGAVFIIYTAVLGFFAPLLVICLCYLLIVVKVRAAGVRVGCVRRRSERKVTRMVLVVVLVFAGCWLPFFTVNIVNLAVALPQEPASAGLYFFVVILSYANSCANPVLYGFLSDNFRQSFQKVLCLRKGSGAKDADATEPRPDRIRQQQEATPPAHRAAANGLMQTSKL
Chain of SSTR-3 (P32745 whole entry, species assumed): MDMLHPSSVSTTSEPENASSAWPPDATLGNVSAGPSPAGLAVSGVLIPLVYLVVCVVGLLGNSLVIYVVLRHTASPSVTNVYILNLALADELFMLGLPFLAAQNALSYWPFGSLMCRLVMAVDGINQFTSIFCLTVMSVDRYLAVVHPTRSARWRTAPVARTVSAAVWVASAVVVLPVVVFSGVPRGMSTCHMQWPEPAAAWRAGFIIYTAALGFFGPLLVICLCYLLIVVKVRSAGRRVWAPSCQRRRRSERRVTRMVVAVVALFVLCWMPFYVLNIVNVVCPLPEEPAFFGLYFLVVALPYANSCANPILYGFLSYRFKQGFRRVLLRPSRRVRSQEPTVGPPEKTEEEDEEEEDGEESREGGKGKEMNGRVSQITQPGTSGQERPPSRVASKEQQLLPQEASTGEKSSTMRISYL

C[C@H](N)C(=O)NCC(=O)N[C@H]1CSSC[C@@H](C(=O)O)NC(=O)[C@H](CO)NC(=O)[C@H]([C@@H](C)O)NC(=O)[C@H](Cc2ccccc2)NC(=O)[C@H]([C@@H](C)O)NC(=O)C(CCCCN)NC(=O)[C@H](Cc2c[nH]c3ccccc23)NC(=O)[C@H](Cc2ccccc2)NC(=O)[C@H](Cc2ccccc2)NC(=O)[C@H](CC(N)=O)NC(=O)[C@H](CCCCN)NC1=O (some centres unmarked) [SS14]
number of HANs ([1]; nine month old LoxP animals): impressive reduction
duct width, glandular hyperplasia and hyperplastic alveolar nodules (in words) [1]: reduces duct width, glandular hyperplasia and hyperplastic alveolar nodules
somatostatin receptors bound [2]: all of the somatostatin receptors

CC/C(=C(\c1ccccc1)c1ccc(OCCN(C)C)cc1)c1ccccc1 [tamoxifen]
prevention of the development of cancer [3]: about 50%

NCCCC[C@@H]1NC(=O)[C@@H](Cc2c[nH]c3ccccc23)NC(=O)[C@H](c2ccccc2)NC(=O)[C@@H]2C[C@@H](OC(=O)NCCN)CN2C(=O)[C@H](Cc2ccccc2)NC(=O)[C@H](Cc2ccc(OCc3ccccc3)cc2)NC1=O [SOM230] (cyclo(F[Hyp]([CO-Ethylenediamine])[Phg][dW]KY(Bn)))
affinity for SSTR-5 [4]: high binding affinity
HbA1C level [5]: increased
cholelithiasis [5]: 30%
diarrhea [5]: 58%
fasting plasma glucose level [5]: increased
hyperglycemia [5]: 40%
nausea [5]: 52%
patients with a hyperglycemia-related adverse event [5]: 73%
abnormal ductal dilatation ([1]; LoxP mice): significant effect on inhibiting
formation of HANs ([1]; LoxP mice): preventing formation of HANs
duct width at 21 days post-treatment (in words) ([1]; LoxP mice, SOM230 treatment then 21 days rest): maintained
time clinical benefit (reduction in PR/p63+ progenitor cells, ductal width and/or proliferative cells) is maintained into the rest period ([1]; LoxP mice, after end of administration): at least 20 days
duct width, glandular hyperplasia and hyperplastic alveolar nodules (in words) [1]: reduces duct width
duct width, glandular hyperplasia and hyperplastic alveolar nodules (in words) ([1]; listed as Pasireotide): reduces duct width, glandular hyperplasia and hyperplastic alveolar nodules
terminal half life [6]: 27 h
normalization of finger stick glucose after stopping medication (in words) [7]: almost immediately
terminal half life ([8]; Bruns et al. 2002, van der Hoek et al. 2004): 27 h
plasma half life ([8]; Ma et al. 2005): approximately 12 hours
affinity for SSTR-2 [9]: high binding affinity
cell proliferation as assessed by Ki67 immunohistochemistry [10]: significantly reduce cell proliferation
cell proliferation (Ki67 staining) at 21 days post-treatment ([10]; treated vs untreated, 21 days into rest period): continues to be inhibited
affinity for SSTR-3 [11]: high binding affinity
IRS-1 phosphorylation in the mammary gland [12]: reduction
growth hormone secretion from the pituitary [12]: inhibitory effect
mammary gland development [12]: prevents mammary gland development
centrosome index / frequency of cells with more than 1 or 2 centrosomes (in words) [13]: significantly reduced
frequency of PR/p63 double positive cells [14]: 5%
frequency of PR/p63 double positive cells ([14]; listed as pasireotide): 4.8±1.2%
frequency of PR/p63 double positive cells (in words) [14]: significantly reduce; also recorded: dramatically reduced
serum glucose at 60 days after discontinuation (13 patients): normal
serum insulin at 60 days after discontinuation (13 patients): normal
time by which serum glucose and insulin levels normalize after SOM230 administration ceases (13 patients): ≤ 30 days
mean glucose [16]: 95
serum insulin [16]: increased
women tested with finger stick glucoses of less than 92 mg/dL (by 4 days after cessation of SOM230 administration): 6 of 8
patients with hyperglycemia (patients diagnosed with or pre-disposed to breast cancer treated with SOM230): 100%
30 day post-treatment glucose of the patient ultimately determined to be diabetic (single patient, initial blood sugar 100): 117
affinity for SSTR-1 [15]: high binding affinity
somatostatin receptors bound [2]: 4 of the 5

COc1ccc(Cl)cc1NC(=O)Nc1cc(C)nc2ccccc12 [PQ401]
duct width, glandular hyperplasia and hyperplastic alveolar nodules (in words) [1]: reduces duct width, glandular hyperplasia and hyperplastic alveolar nodules
cell proliferation as assessed by Ki67 immunohistochemistry [10]: significantly reduce cell proliferation
centrosome index / frequency of cells with more than 1 or 2 centrosomes (in words) [13]: significantly reduced
frequency of PR/p63 double positive cells (in words) [14]: significantly reduce; also recorded: dramatically reduced
